{
  "source": "patent US9656953B2",
  "about": "“Inhibition of cell proliferation” (University of South Florida, priority 2005, dated 2017)",
  "key": {"Rb:Raf-1 binding": {"target": "T1, Rb:Raf-1 binding (Homo sapiens, UniProt P04049+P06400)", "T1 construct": "a glutathione S-transferase (GST) Raf-1 (1-149aa) overnight at 4° C; made in house", "T1 sequence (P04049 1-149 limits assumed)": "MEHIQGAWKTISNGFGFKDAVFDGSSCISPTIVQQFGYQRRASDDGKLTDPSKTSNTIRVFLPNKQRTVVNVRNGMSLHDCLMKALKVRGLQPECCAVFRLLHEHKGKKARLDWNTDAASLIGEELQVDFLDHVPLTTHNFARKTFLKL", "T1 sequence (P06400 whole entry)": "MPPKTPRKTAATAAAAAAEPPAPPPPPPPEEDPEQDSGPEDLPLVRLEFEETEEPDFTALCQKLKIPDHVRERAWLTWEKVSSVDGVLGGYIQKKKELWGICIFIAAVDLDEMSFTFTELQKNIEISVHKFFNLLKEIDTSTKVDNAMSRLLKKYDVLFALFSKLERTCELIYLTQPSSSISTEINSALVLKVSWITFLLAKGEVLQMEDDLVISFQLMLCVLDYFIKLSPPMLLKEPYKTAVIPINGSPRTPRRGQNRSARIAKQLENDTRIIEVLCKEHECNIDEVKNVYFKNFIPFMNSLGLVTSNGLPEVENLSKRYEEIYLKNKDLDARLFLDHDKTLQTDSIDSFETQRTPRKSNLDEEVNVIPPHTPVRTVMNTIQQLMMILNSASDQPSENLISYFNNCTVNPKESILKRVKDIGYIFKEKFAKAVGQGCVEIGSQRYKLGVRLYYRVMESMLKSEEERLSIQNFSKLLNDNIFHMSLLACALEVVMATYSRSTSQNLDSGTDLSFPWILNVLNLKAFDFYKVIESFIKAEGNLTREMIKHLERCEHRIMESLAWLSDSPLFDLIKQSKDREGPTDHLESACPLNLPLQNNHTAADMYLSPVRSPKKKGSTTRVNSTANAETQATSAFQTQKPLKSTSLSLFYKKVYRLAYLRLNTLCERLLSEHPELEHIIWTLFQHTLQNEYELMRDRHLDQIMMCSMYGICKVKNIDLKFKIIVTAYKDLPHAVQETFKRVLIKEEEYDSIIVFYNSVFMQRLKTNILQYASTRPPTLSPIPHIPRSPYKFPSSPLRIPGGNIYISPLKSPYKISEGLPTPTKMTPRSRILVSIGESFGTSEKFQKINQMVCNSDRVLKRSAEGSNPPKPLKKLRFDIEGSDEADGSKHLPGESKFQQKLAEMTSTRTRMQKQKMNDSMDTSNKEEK", "test": "GST-Rb/GST-Raf-1 ELISA", "description": "In vitro library screening assays. Enzyme Linked ImmunoSorbent Assay (ELISA) 96-well plates were coated with 1 μg/mL of a glutathione S-transferase (GST) Raf-1 (1-149aa) overnight at 4° C. Subsequently the plates were blocked and GST Rb at 20 μg/mL was rotated at room temperature (RT) for 30 minutes in the presence or absence of the compounds at 20 micromolar (μM). GST-Rb +/− compounds were then added to the plate and incubated for 90 minutes (min) at 37° C. The amount of Rb bound to Raf-1 was detected by Rb polyclonal antibody (Santa Cruz Biotechnology, Santa Cruz, Calif.) 1:1000 incubated for 60 min at 37° C. Donkey-anti-rabbit-IgG-HRP (1:10,000) was added to the plate and incubated at 37° C. for 60 minutes. The color was developed with orthophenylenediamine (Sigma, St. Louis, Mo.) and the reaction was terminated with 3 molar (M) H2SO4. Absorbance was read at 490 nanometers (nm). To determine disruption of Rb to E2F1, Phb, or HDAC1 the above protocol was used with the exception of coating GST Rb on the ELISA plate and adding the drugs in the presence or absence of GST E2F1, Phb, or HDAC1. […] Prohibitin monoclonal antibody was used at 1:1000 to detect the amount of Rb bound to Prohibitin. For disruption of MEK-Raf-1 binding ELISAs, Raf-1 1 microgram/milliliter (μg/mL) was coated on the plate and GST-MEK (20 μg/mL) was incubated +/− the compounds for 30 minutes at room temperature. Mek1 polyclonal antibody was used at 1:1000 to detect the binding of Raf-1 to Mek1. The IC50 concentrations for the Rb:Raf-1 inhibitors were determined by plotting with Origin 7.5 software (Origin, Northampton, Mass.).\nA screen was developed to identify small molecule inhibitors of the Rb:Raf-1 interaction. A diversity set, comprising 1981 compounds (National Cancer Institute, Bethesda, Md.) was examined using a glutathione S-transferase-retinoblastoma/glutathione S-transferase-Raf-1 kinase Enzyme-Linked ImmunoSorbent Assay screen (GST-Rb/GST-Raf-1 ELISA)."}, "Rb-E2F1": {"target": "T2, Rb-E2F1 (Homo sapiens, UniProt P06400+Q01094)", "T2 construct": "made in house", "T2 sequence (P06400 whole entry)": "as above", "T2 sequence (Q01094 whole entry)": "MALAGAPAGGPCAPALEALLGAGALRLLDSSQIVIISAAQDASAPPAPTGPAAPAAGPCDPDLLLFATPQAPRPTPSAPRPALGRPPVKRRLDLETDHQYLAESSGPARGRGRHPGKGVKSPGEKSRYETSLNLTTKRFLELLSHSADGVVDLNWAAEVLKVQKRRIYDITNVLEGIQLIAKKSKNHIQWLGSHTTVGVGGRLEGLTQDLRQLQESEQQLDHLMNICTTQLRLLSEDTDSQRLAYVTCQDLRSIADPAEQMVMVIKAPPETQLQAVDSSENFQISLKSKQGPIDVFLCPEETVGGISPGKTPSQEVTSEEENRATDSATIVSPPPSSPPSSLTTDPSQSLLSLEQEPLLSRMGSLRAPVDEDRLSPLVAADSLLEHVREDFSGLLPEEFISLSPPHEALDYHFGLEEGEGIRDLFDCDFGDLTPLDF", "test": "GST ELISA, Rb-E2F1 binding", "details": "20 μM", "excerpt": "In vitro library screening assays. […] Absorbance was read at 490 nanometers (nm)."}, "[1]": {"test_system": "Human aortic endothelial cells (HAECs)", "test": "Matrigel angiogenic tubule formation", "type": "cell-based", "details": "20 μM", "description": "Matrigel assays. […] A total of 100 μl of thawed Matrigel was added to 96-well tissue culture plates, followed by incubation at 37° C. for 60 minutes to allow polymerization. […] Capillary tube formation assessed by using a Leica DMIL phase contrast microscope.\nAn experiment was performed to determine whether angiogenic tubule formation could be inhibited by the disclosed compounds."}, "[2]": {"target": "binding of Raf-1 to GST Rb beads (Homo sapiens, UniProt P04049+P06400)", "sequence (P06400 whole entry)": "as the sequence (P06400 whole entry) above", "sequence (P04049 whole entry)": "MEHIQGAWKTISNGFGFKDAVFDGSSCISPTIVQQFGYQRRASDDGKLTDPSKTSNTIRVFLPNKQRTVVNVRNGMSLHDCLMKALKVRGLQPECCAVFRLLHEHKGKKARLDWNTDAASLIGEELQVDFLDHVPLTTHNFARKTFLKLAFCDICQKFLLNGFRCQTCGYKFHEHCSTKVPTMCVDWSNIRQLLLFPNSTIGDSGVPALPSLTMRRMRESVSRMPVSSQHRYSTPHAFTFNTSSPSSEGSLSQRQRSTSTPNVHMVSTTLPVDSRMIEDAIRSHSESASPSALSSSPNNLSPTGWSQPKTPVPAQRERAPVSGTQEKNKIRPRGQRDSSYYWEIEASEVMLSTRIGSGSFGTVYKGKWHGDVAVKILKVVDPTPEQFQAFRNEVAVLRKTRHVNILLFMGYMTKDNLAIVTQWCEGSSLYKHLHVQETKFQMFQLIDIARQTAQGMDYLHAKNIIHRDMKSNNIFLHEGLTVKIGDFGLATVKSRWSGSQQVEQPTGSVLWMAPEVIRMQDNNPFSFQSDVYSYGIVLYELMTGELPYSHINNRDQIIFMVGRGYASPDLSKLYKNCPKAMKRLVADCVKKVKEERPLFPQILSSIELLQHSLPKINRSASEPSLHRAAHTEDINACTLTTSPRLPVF", "test": "GST pull-down, U937 lysates", "details": "20 μM, asynchronous U937 lysates, western blotting", "experimental": "First, 200 micrograms (μg) of U937 asynchronous lysates were pre-incubated with 10 μM of the indicated drugs or 1 μM of the Raf-1 peptide for 30 minutes at 4° C. Next, 200 μg of the U937 lysates were incubated with glutathione beads carrying an equal amount of the GST fusion proteins in 2001 of protein binding buffer (20 mM Tris [pH 7.5], 50 mM KCL, 0.5 mM EDTA, 1 mM dithiothreitol, 0.5% NP-40, 3 mg of bovine serum albumin/mL) at 4° C. for 2 h.\nAsynchronous U937 lysates were incubated with GST-Rb beads in the presence or absence of the selected compounds or an 8 amino acid Raf-1 peptide and the binding of Raf-1 assessed by western blotting."}, "[3]": {"target": "binding of Raf-1 to Rb in U937 cells (Homo sapiens, UniProt P04049+P06400)", "sequence (P06400 whole entry)": "as the sequence (P06400 whole entry) above", "sequence (P04049 whole entry)": "as the sequence (P04049 whole entry) above", "test": "Immunoprecipitation-Western blot, serum stimulated U937 cells", "details": "U937 cells serum stimulated 2 hours, 20 μM", "experimental": "Lysate preparation, pmmunoprecipitation, and pestern plotting. Lysates from cells treated with different agents were prepared by NP-40 lysis as described earlier (Wang 1998). […] Physical interaction between proteins in vivo was analyzed by immunoprecipitation—Western blot analyses with 200 μg of lysate with 1 μg of the indicated antibody as previously described (Wang 1998). Polyclonal E2F1 and Cyclin D were obtained from Santa Cruz Biotechnology. Monoclonal Rb and Raf-1 were supplied by BD Transduction laboratories (San Jose, Calif.). Polyclonal antibodies to phospho-Rb (807,811) phospho-MEK1/2, MEK1/2, phospho-Erk1/2 and ERK1/2 were supplied by Cell Signaling (Danvers, Mass.).\nU937 cells were serum starved for 48 hours and subsequently serum stimulated for 2 hours in the presence or absence of 20 μM of the compounds."}},
  "note": "“Also recorded” adds a separate entry of the source.",
  "data": [
    {"compound": "N=C(N)SCc1ccc(Cl)c2ccccc12", "note": "[(2), (4-chloronaphthalen-1-yl)methyl carbamimidothioate]", "values": [
      {"measurement": "IC50", "setting": "Rb:Raf-1 binding; IC50 (nM), inhibition of the Rb:Raf-1 binding, concentration that inhibits the Rb:Raf-1 binding by 50%, triplicate", "value": "283 ± 46", "unit": "nM"},
      {"measurement": "inhibition at 20 µM", "setting": "Rb:Raf-1 binding; read-out: % Inhibition at 20 μM, inhibition of Rb:Raf-1 binding, compound at 20 μM", "value": 95, "unit": "%"},
      {"measurement": "inhibition of Rb-E2F1 binding / selectivity in words", "setting": "Rb-E2F1", "value": "selective for inhibiting Rb:Raf-1 and not Rb-E2F1 binding"},
      {"measurement": "angiogenic tubule formation in matrigel", "setting": "[1]", "value": "inhibit angiogenic tubule formation; also recorded: significantly inhibited the angiogenic tubule formation"},
      {"measurement": "binding of Raf-1 to GST Rb beads", "setting": "[2]", "value": "inhibited the binding of GST Rb beads to endogenous Raf-1"},
      {"measurement": "binding of Raf-1 to Rb in intact cells", "setting": "[3]", "value": "inhibited the binding of Raf-1 to Rb significantly"}
    ]}
  ]
}
